Data taken from patent US11077098B2, “Opioid receptor ligands and methods of using and making same” (TREVENA, INC., priority 2011, dated 2021).

Tested on: mice
Assay: hot plate assay for antinociception in mice
Format: in vivo, mouse
Details: for ED50 / analgesic effect in the mouse hot plate assay compared to morphine: SC; for ED50: tested thirty minutes after drug administration
Protocol: The hot plate assay is adapted from the procedure originally described by O'Callaghan and Holtzman (JPET, 192, 497, 1975) and is commonly used to determine the potential analgesic efficacy of opioid agonists. The antinociceptive effect of the composition(s) described herein in the hot plate is expressed in % MPE (Maximum Possible Effect).
Rats (175-250 g) or mice (20-30 g) acclimated to the vivarium for at least 48 hr prior to behavioral testing. Test drugs were administered by the subcutaneous (SC) route. Animals were placed on the hot plate, which the temperature was set at 50-56° C., depending on the in vitro potency of the compound. A cutoff time of 30-60 seconds was used depending on the temperature of the hot plate so that the paws of the animal displaying analgesia, was not damaged by the heat stimulus. The cutoff time was considered a 100% response to the thermal insult. Prior to drug treatment, each animal was tested to determine the baseline response. Thirty minutes after drug administration, animals were re-tested. Dose response experiments were performed to evaluate the potency of the test compound when various doses were administered at the point when maximal analgesia is observed.
The % MPE was calculated according to the following formula: % MPE=[(Post drug latency−baseline latency)/(60 or 30−baseline latency)]×100
ED50 values were calculated from the mean % MPE values for each group using log dose-response curves by least-squares regression analysis.

Compound: CN1CC[C@]23c4c5ccc(O)c4O[C@H]2[C@@H](O)C=C[C@H]3[C@H]1C5 [Morphine, reference compound]
- efficacy in the mouse hot plate (at a dose of 10 mg/kg SC): full efficacy
- ED50 (mouse hot plate): 3.8 mg/kg

Compound: Cc1cccc(CNCC[C@@]2(c3ccc(F)cc3)CCOC3(CCCC3)C2)c1 [Compound 122, {2-[(9R)-9-(4-fluorophenyl)-6-oxaspiro[4.5]decan-9-yl]ethyl}[(3-methylphenyl)methyl]amine]
- analgesic effect in the mouse hot plate assay compared to morphine: more robust analgesic effect
- ED50 (mouse hot plate): 1.1 mg/kg

Compound: c1ccc(CNCC[C@@]2(c3ccccn3)CCOC3(CCCC3)C2)cc1 [Compound 28]
- analgesic effect in the mouse hot plate assay compared to morphine: more robust analgesic effect
- ED50 (mouse hot plate): 1.2 mg/kg

Compound: Fc1ccc([C@]2(CCNCc3ccccc3)CCOC3(CCCC3)C2)cc1 [Compound 81, benzyl({2-[(9R)-9-(4-fluorophenyl)-6-oxaspiro[4.5]decan-9-yl]ethyl})amine]
- % MPE (mouse hot plate, at 10 mg/kg SC): 100% at 10

Compound: Cc1ccc(CNCC[C@@]2(c3ccc(F)cc3)CCOC3(CCCC3)C2)s1 [Compound 145]
- ED50 (mouse hot plate): 5.9 mg/kg
